Series [1] is described as follows: in vitro. The note with it: African green monkey, CC50 in Vero E6 cells.
Series [2] concerns SARS-CoV-2. In words: microbe, parasite or virus in culture. It is filed as cell-based. The note with it: Severe acute respiratory syndrome coronavirus 2, Vero C1008; read-out: antiviral EC50 against SARS-CoV-2 in Vero E6 cells.
Series [3] relates to SARS-CoV-2. Description: microbe, parasite or virus in culture. The settings on record: Severe acute respiratory syndrome coronavirus 2; read-out: antiviral EC50 against SARS-CoV-2 in Caco2-hACE2 cells. It is filed as cell-based.
Series [4] has as its target T1, SARS-CoV-2 M^pro (Severe acute respiratory syndrome coronavirus 2 (2019-nCoV) (SARS-CoV-2), UniProt P0DTD1). Description: biochemical.
The target of series [5] is T1, SARS-CoV-2 M^pro. Description: cell-based.
In series [6] the target is T1, SARS-CoV-2 M^pro. Description: biochemical. The source holds these as a separate data set.
The nature of series [7]: in vitro. The settings on record: human, CC50 in Calu-3 cells.
The target in series [8] is SARS-CoV M^pro (Severe acute respiratory syndrome coronavirus (SARS-CoV), UniProt P0C6X7). In words: biochemical.
The target of series [9] is SARS-CoV-2 papain-like protease (PL^pro) (Severe acute respiratory syndrome coronavirus 2 (2019-nCoV) (SARS-CoV-2), UniProt P0DTD1). In words: biochemical.
Series [10] deals with T1, SARS-CoV-2 M^pro. Description: biochemical. Type of series: binding.
In series [11] the target is T1, SARS-CoV-2 M^pro. Type of series: binding. The note with it: for mass modification (mass shift) of M^pro adduct: native mass spectrometry, covalent adduct.
Series [12] deals with cathepsin K (Homo sapiens (Human), UniProt P43235). Type of series: biochemical.
Series [13] has as its system trypsin. Description: Host protease FRET-based enzymatic assay: trypsin. Type of series: biochemical.
The target in series [14] is T2, Cathepsin L (Homo sapiens (Human), UniProt P07711). In words: Host protease FRET-based enzymatic assay: cathepsin L. It is filed as biochemical. The protocol: The cathepsin L enzymatic assay was carried out as follows: human liver cathepsin L (EMD Millipore 219402) was activated by incubating at reaction buffer (20 mM sodium acetate, 1 mM EDTA and 5 mM DTT pH5.5) for 30 min at 30° C. Upon activation, the assay was assembled in 96-well plates with 100 μl of 300 pM cathepsin L protein in cathepsin L reaction buffer. Then 1 μl testing compound at various concentrations was added to each well and incubated at 30° C. for 30 min. The enzymatic reaction was initiated by adding 1 μl of 100 μM FRET substrate Z-Phe-Arg-AMC (the final substrate concentration is about 1 μM). The reaction was monitored in a Cytation 5 image reader with filters for excitation at 360/40 nm and emission at 460/40 nm at 30° C. for 1 hr. The IC50 values were calculated as described in above section.
(§1) Enzymatic reactions against host proteases (Calpain I, Cathepisn K, Cathespsin L, Caspase-3 and Trypisn) were carried out as previously described (see, Xia, Z.; et al., ACS Pharmacol. Transl. Sci. 2021). Cathepsin B assay reaction was carried out as follows: Cathepsin B (catalog no. CTB-H5222) was diluted into 100 nM final concentration in a buffer containing 20 mM sodium acetate pH5.5, 1 mM EDTA and 2 mM DTT and the mixture was incubated for 30 min at 30° C. Activated Cathepsin B was further diluted to 500 pm in the reaction buffer (100 mM MES pH6.0, 1 mM EDTA, 2 mM DTT and 0.01% TWEEN 20).

Series [15] has as its target caspase-3 (Homo sapiens (Human), UniProt P42574). Description: Host protease FRET-based enzymatic assay: caspase-3. It is filed as biochemical. How it is done:
as §1

Series [16] has as its target calpain I (Homo sapiens (Human), UniProt P07384). Description: Host protease FRET-based enzymatic assay: calpain I. Type of series: biochemical. How it is done:
as §1

Series [17] has as its target T3, Cathepsin B (Homo sapiens (Human), UniProt P07858). In words: Host protease FRET-based enzymatic assay: cathepsin B. Type of series: biochemical. How it is done: as §1
Series [18] is described as follows: Cytotoxicity in Vero E6 cells (neutral red uptake). The note with it: African green monkey, CC50 in Vero E6 cells.
For series [19], the system named is Calu-3 cells. The note with it: human, 5 days.
Series [20] addresses T2, Cathepsin L. The settings on record: cited from earlier work.
The target in series [21] is T3, Cathepsin B. The settings on record: cited from earlier work.
Series [22] concerns SARS-CoV-2. Description: microbe, parasite or virus in culture. The note with it: Severe acute respiratory syndrome coronavirus 2, Calu-3; read-out: antiviral EC50 against SARS-CoV-2 in Calu-3 cells. Type of series: cell-based.
The mark [23] stands for this setting: read-out: IC50 against SARS-CoV-2 M^pro.
Setting [24] is: read-out: Additional off targets: Cathepsin B IC50.

Here are results for 13 compounds from patent US20240083885A1, “COMPOSITIONS AND METHODS FOR INHIBITING M PRO PROTEASE ACTIVITY AND FOR PREVENTING AND TREATING SARS-COV-2 INFECTION” (priority 2020, published 2024).

Where “and” joins values, the source holds several entries; their conditions need not be identical. Equal entries are not always repeated. Where two headings read alike, the source gives them in different places.

Broadly, the CC50 is the concentration that lowers cell viability or growth by half. Read a low CC50 as greater toxicity to the cells. By EC50 is commonly meant the midpoint of the concentration-response curve. The term kinact/KI denotes the second-order rate constant of inactivation. What is called IC50 is the concentration that inhibits the measured activity by half. For orientation: Kd means a measure of binding affinity in units of concentration.

T2 sequence (P07711 114-333 limits assumed): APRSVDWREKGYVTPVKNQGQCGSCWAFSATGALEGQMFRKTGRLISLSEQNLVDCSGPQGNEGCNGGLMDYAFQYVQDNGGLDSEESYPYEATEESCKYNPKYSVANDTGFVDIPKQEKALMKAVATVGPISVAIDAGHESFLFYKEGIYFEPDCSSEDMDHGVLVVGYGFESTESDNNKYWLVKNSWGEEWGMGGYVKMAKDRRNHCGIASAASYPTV
Chain of cathepsin K (P43235 115-329 limits assumed): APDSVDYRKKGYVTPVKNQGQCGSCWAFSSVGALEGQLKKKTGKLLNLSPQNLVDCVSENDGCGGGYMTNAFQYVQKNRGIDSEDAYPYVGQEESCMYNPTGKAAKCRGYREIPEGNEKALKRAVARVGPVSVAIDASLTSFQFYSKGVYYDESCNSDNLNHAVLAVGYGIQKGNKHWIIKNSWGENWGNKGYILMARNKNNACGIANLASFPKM
Chain of caspase-3 (P42574 29-175 limits assumed): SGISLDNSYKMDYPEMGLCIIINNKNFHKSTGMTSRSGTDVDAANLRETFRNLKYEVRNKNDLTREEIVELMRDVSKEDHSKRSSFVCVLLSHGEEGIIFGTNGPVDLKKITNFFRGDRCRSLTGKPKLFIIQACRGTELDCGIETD
Chain of caspase-3 (P42574 176-277 limits assumed): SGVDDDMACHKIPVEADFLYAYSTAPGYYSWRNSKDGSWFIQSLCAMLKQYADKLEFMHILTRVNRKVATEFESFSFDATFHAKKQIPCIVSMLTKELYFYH

As for `C[C@@H](CCc1ccccc1)NC(=O)[C@@H](c1cccnc1)N(C(=O)C(Cl)Cl)c1ccc(-c2ccccc2)cc1` (single isomer, unassigned) [Jun9-90-4R], the CC50 at 5 days in series [1] was > 100000 nM. The EC50 is 1100 nM in [2], 1430 nM in series [3] and 1570 nM in [5]. In addition, the inactivation efficiency (kinact/KI) in [4] turned out to be 867 M⁻¹ s⁻¹. Also, in series [6] (setting [23]), the half-maximal inhibitory concentration (IC50) came to 0.46 µM.
As to `C[C@H](NC(=O)[C@@H](c1cccnc1)N(C(=O)CCl)c1ccc(-n2cccc2)cc1)c1ccccc1` [Jun9-57-3R, N-(4-(1H-pyrrol-1-yl)phenyl)-2-chloro-N-((R)-2-oxo-2-(((S)-1-phenylethyl)amino)-1-(pyridin-3-yl)ethyl)acetamide], the CC50 at 5 days was < 11000 nM in [1] and < 2000 nM in series [7]. In series [6] (setting [23]), the 50% inhibitory concentration (IC50) was 0.05 µM.
In the case of `C[C@H](NC(=O)C(c1cccnc1)N(C(=O)c1ccco1)c1ccc(-c2ccccc2)cc1)c1ccccc1` (single isomer, unassigned) [Compound 23R], the concentration for half-maximal inhibition (IC50) was 270 ± 30 nM in series [8]; > 20 µM in [9] (IC50 against SARS-CoV-2 papain-like protease (PL^pro)); > 60 µM in series [9] (SARS-CoV-2 PL^pro IC50 (μM)); 0.15 µM and 0.13 µM in series [6] (IC50 against SARS-CoV-2 M^pro); 0.15 ± 0.03 µM in [6] (SARS-CoV-2 M^pro IC50 (μM)). Moreover, binding in series [10] was put at a Kd of 9430 nM. The “binding to SARS-CoV-2 M^pro in native mass spectrometry” value in series [11] is “dose-dependent binding”. Besides, in series [6], the “change of IC50 with pre-incubation time” value is “did not lead to significant changes of the IC50 value”. Moreover, the response in [6] (SARS-COV-2 main protease enzymatic inhibition (separated diastereomers, printed as EC50)) was half-maximal at 150 nM (EC50).
`C[C@H](NC(=O)[C@@H](c1cccnc1)N(C(=O)C(Br)Br)c1ccc(-c2ccccc2)cc1)c1ccccc1` [Jun9-89-2R] came in with a cytotoxic concentration (CC50) at 5 days in series [1] of 8940 nM. Further, the “mass modification (mass shift) of M^pro adduct” value (“mass modification (mass shift)” for short) in series [11] was 526 Da. Also, in series [6] (IC50 against SARS-CoV-2 M^pro), 0.08 µM corresponded to half-maximal inhibition (IC50).
In the case of `C[C@H](NC(=O)[C@@H](c1cccnc1)N(C(=O)C(Br)(Br)Br)c1ccc(-c2ccccc2)cc1)c1ccccc1` [Jun9-88-6R, N-([1,1′-biphenyl]-4-yl)-2,2,2-tribromo-N-((R)-2-oxo-2-(((S)-1-phenylethyl)amino)-1-(pyridin-3-yl)ethyl)acetamide], the half-maximal cytotoxic concentration (CC50) at 5 days in series [1] came out at 5480 nM. The “inhibition of cathepsin K” value in series [12] is “did not show potent inhibition”. In series [13], the “inhibition of trypsin (IC50)” value is reported as “did not show potent inhibition”. In addition, the 50% effective concentration (EC50) in series [2] came out at 580 nM; in series [3] it was 2150 nM; in [5], 920 nM. Besides, the results for the IC50 in series [14] and in series [6] (setting [23]) were 7370 nM and 0.08 µM, respectively. Also, in series [14], the “selectivity for inhibiting SARS-CoV-2 M^pro over cathepsin L” value is reported as 94 fold. Further, the “inhibition of caspase-3 (IC50)” value in series [15] was “did not show potent inhibition”. Besides, the kinact/KI in [4] amounted to 7070 M⁻¹ s⁻¹. For the same compound, the “mass modification (mass shift)” value in series [11] turned out to be 526 Da. Also, in series [16], the “inhibition of calpain I” value is on record as “did not show potent inhibition”. Also, the “inhibition of cathepsin B” value in series [17] is listed as “did not show potent inhibition”.
As to `C[C@H](NC(=O)[C@H](c1cccnc1)N(C(=O)CCl)c1ccc(-n2cccc2)cc1)c1ccccc1` (stereo in doubt) [Jun9-57-3S], the CC50 at 5 days is < 11000 nM in series [1] and < 2000 nM in series [7]. Further, in [6] (setting [23]), the 50% inhibitory concentration (IC50) worked out at 1.13 µM.
With `C[C@H](NC(=O)[C@@H](c1cccnc1)N(C(=O)C(Cl)Cl)c1ccc(-c2ccccc2)cc1)c1ccccc1` [Jun9-62-2R, N-([1,1′-biphenyl]-4-yl)-2,2-dichloro-N-((R)-2-oxo-2-(((S)-1-phenylethyl)amino)-1-(pyridin-3-yl)ethyl)acetamide], the “inhibition of cathepsin K” value in series [12] was “did not show potent inhibition”. In [13], the “inhibition of trypsin (IC50)” value was “did not show potent inhibition”. Moreover, the concentration for a half-maximal effect (EC50) is 900 nM in [2], 2050 nM in series [3] and 960 nM in series [5]. The “inhibition of cathepsin L (IC50)” value in series [14] is “did not show potent inhibition”. Moreover, the “inhibition of caspase-3 (IC50)” value in series [15] was “did not show potent inhibition”. Besides, the half-maximal cytotoxic concentration (CC50) at 5 days in series [18] was > 100000 nM. Moreover, the “inhibition of calpain I” value in series [16] was “did not show potent inhibition”. In addition, the “change of IC50 with pre-incubation time” value in [6] is “longer pre-incubation time gave lower IC50 values”. For the same compound, the “inhibition of cathepsin B” value in series [17] is reported as “did not show potent inhibition”.
In the case of `C[C@H](NC(=O)C(c1cccnc1)N(C(=O)CCl)c1ccc(-c2ccccc2)cc1)c1ccccc1` (stereo partly drawn) [Jun9-54-1, 2-(N-{[1,1′-biphenyl]-4-yl}-2-chloroacetamido)-N-[(1S)-1-phenylethyl]-2-(pyridin-3-yl)acetamide], in series [7], the CC50 at 5 days is < 2000 nM. Besides, the CC50 in series [19] was < 3500 nM. In addition, in series [6] (setting [23]), the IC50 was 0.17 µM.
Turning to `CC#CC(=O)N(c1ccc(-c2ccccc2)cc1)C(C(=O)N[C@@H](C)c1ccccc1)c1cccnc1` (stereo partly drawn) [Jun9-62-1, N-([1,1′-hiphenyl]-4-yl)-N-(2-oxo-2-(((S)-1-phenylethyl)amino)-1-(pyridin-3-yl)ethyl)but-2-ynamide], the CC50 at 5 days in series [1] was 18000 nM; in series [7], 47800 nM. Further, the half-inhibitory concentration (IC50) in series [6] (setting [23]) was 1.15 µM.
As for PF-00835231, the IC50 in [20] (read-out: Cathepsin L IC50) was 146 nM; in series [21] (setting [24]), 1300 nM.
In [1], `C[C@H](NC(=O)[C@@H](c1cccnc1)N(C(=O)C(Cl)(Br)Br)c1ccc(-c2ccccc2)cc1)c1ccccc1` [Jun9-89-4R, N-([1,1′-biphenyl]-4-yl)-2,2-dibromo-2-chloro-N-((R)-2-oxo-2-(((S)-1-phenylethyl)amino)-1-(pyridin-3-yl)ethyl)acetamide] showed a CC50 at 5 days of 8410 nM. The “mass modification (mass shift)” value in series [11] was 481 Da and 561 Da. For the same compound, in [6] (setting [23]), the IC50 stood at 0.05 µM.
Consider `C[C@H](NC(=O)[C@@H](c1cccnc1)N(C(=O)C(Cl)Cl)c1ccc(-c2ccccc2)cc1)c1ccc(Br)cc1` [Jun9-90-3R], for which the 50% cytotoxic concentration (CC50) at 5 days in [1] was > 100000 nM. In addition, the EC50 in series [2] turned out to be 2070 nM; in [3] it was 3240 nM; in series [5], 910 nM; in series [22] it was 2000 nM. Also, the kinact/KI in [4] was found to be 1540 M⁻¹ s⁻¹. Moreover, in [6] (setting [23]), the IC50 is 0.3 µM.
For the compound `C[C@@H](OC(C)(C)C)[C@H](NC(=O)OCc1ccccc1)C(=O)N[C@@H](CC1CCCCC1)C(=O)N[C@H](C=O)C[C@@H]1CCNC1=O` [MPI8], the IC50 is 1.2 nM in series [20] (read-out: Cathepsin L IC50), 230 nM in series [20] (read-out: IC50 cathepsin L (recent study)), 230 nM in series [21] (setting [24]) and 1.2 nM in series [21] (read-out: IC50 cathepsin B (recent study)).
